# According to ChEMBL document CHEMBL5725642, “Inhibitors of human immunodeficiency virus replication” (2018):
# Several values for one entry are separate records, joined by “and”; a condition that tells them apart may be missing. Equal entries are not always repeated.
# Assay: Infectivity Assay: HIV cell culture assay¿MT-2 cells, 293T cells and the proviral DNA clone of NL4-3 virus were obtained from the NIH AIDS Research and Reference Reagent Program. MT-2 cells were propagated in RPMI 1640 media supplemented with 10% heat inactivated fetal bovine serum (FBS), 100 ug/ml penicillin G and up to 100 units/ml streptomycin. The 293T cells were propagated in DMEM media supplemented with 10% heat inactivated FBS, 100 ug/ml penicillin G and 100 ug/ml streptomycin. A recombinant NL4-3 proviral clone, in which a section of the nef gene was replaced with the Renilla luciferase gene, was used to make the reference virus used in these studies. The recombinant virus was prepared through transfection of the recombinant NL4-3 proviral clone into 293T cells using Transit-293 Transfection Reagent from Mirus Bio LLC (Madison, Wis.). Supernatent was harvested after 2-3 days after transfection, and the amount of virus present was titered in MT-2 cells using luciferase enzyme activity as a marker. Luciferase activity was quantitated using the EnduRen Live Cell Substrate from Promega (Madison, Wis.). Antiviral activities of compounds toward the recombinant virus were quantified by measuring luciferase activity in MT-2 cells infected for 4-5 days with the recombinant virus in the presence of serial dilutions of the compound.The 50% effective concentration (EC50) was calculated by using the exponential form of the median effect equation where (Fa)=1/[1+(ED50/drug conc.)m](Johnson V A, Byington R T. Infectivity Assay. In Techniques in HIV Research. ed. Aldovini A, Walker B D. 71-76. New York: Stockton Press. 1990).
# Assay type: cell-based
row,Structure (SMILES),EC50
1,CN(C(=O)[C@H](Cc1ccccc1)NC(=O)NS(=O)(=O)c1ccccc1)c1ccc2c(c1)OCO2,0.55 µM
2,Cc1ccccc1S(=O)(=O)NC(=O)N[C@@H](CCc1ccccc1)C(=O)N(C)c1ccc2c(c1)OCO2,55 µM
3,CN(C(=O)[C@@H](Cc1ccccc1)NC(=O)NS(=O)(=O)c1ccccc1)c1ccc2c(c1)OCO2,55 µM
4,Cc1ccccc1S(=O)(=O)NC(=O)N[C@H](CCc1ccccc1)C(=O)N(C)c1ccc2c(c1)OCO2,55 µM
5,CN(C(=O)[C@H](Cc1ccccc1)NC(=O)NS(=O)(=O)c1ccccc1-c1cnn(C)c1)c1ccc2c(c1)OCO2,5.5 µM and 0.55 µM
